Assay results published in patent publication US20230310477A1, “PHARMACEUTICAL COMPOSITION COMPRISING ABELIOPHYLLUM DISTICHUM EXTRACT AS ACTIVE INGREDIENT FOR TREATING ANDROGEN RECEPTOR-RELATED DISEASE” (priority 2020, published 2023).

Key:
androgenic receptor (AR) = assay: Western blotting of testosterone-induced AR expression in LNCaP cells; assay type: cell-based
Description: LNCaP cells were treated with testosterone propionate (TP) to induce androgenic receptor signaling, treated with Abeliophyllum distichum leaf hot water (D.W.), ethanol (EtOH), and hexane (Hexane) extracts, followed by confirming the efficacy of inhibiting the expression of an androgenic receptor (AR, SantaCruz), 5 alpha reductase (5AR2, ABCam), and prostate-specific antigen (PSA, SantaCruz) to compare the inhibitory effect on androgenic receptor signaling-related factors per Abeliophyllum distichum leaf extract LNCaP cells in LNCaP cells. The LNCaP cells (2×10^6) were seeded in 6-well plates, and treated with 100 nM testosterone propionate (TP, Tokyo Chemical Industry) and 100 μg/mL each of Abeliophyllum distichum leaf hot water (D.W.), ethanol (EtOH), and hexane (Hexane) extracts for 24 hours. […] After finishing the treatment of the cells, an androgenic receptor signaling-inhibitory effect was analyzed using western blotting. […] Bands were then detected using an Azure c300 imaging system (Azure Biosystems) by chemiluminescence with an HPR substrate (Advansta Inc., San Jose, CA, USA). Band intensities were quantified by setting the area of each sample using ImageJ software (NIH ver. 1.48, USA) and then setting the area of corresponding β-actin in the same manner as used above, and dividing the area of β-actin by the area of each sample. […]

5 alpha reductase (5AR2) = assay: Western blotting of testosterone-induced 5AR2 expression in LNCaP cells; assay type: cell-based
Description: (§3) The LNCaP cells (2×10^6) were seeded in 6-well plates, and treated with 100 nM testosterone propionate (TP, Tokyo Chemical Industry) and 100 μg/mL each of Abeliophyllum distichum leaf hot water (D.W.), ethanol (EtOH), and hexane (Hexane) extracts for 24 hours. Here, a group treated with 1 μg/mL finasteride (Fi), which is an androgen inhibiting drug, was used as a positive control. After finishing the treatment of the cells, an androgenic receptor signaling-inhibitory effect was analyzed using western blotting. First, the cells were lysed in a protein inhibitor cocktail (Sigma)-containing radioimmunoprecipitation assay (RIPA) buffer, and a protein concentration was estimated using a BCA assay, followed by electrophoresis in a 12% SDS polyacrylamide gel. The gel was then transferred to a membrane using Mini Trans-Blot cells (Bio rad). Subsequently, the membrane was treated with primary antibodies at 4° C. for 12 hours. […] Bands were then detected using an Azure c300 imaging system (Azure Biosystems) by chemiluminescence with an HPR substrate (Advansta Inc., San Jose, CA, USA). Band intensities were quantified by setting the area of each sample using ImageJ software (NIH ver. 1.48, USA) and then setting the area of corresponding β-actin in the same manner as used above, and dividing the area of β-actin by the area of each sample.

[1] = system: prostate-specific antigen (PSA); assay: Western blotting of testosterone-induced PSA expression in LNCaP cells; assay type: cell-based; conditions: compared among IQ, Rutin, CA and IR
Description: as §3

PI3K [2] = assay: Western blotting of testosterone-induced PI3K expression in prostatic cells; assay type: cell-based; conditions: depending on the concentration of isoquercetin
PI3K [3] = assay: Western blotting of PI3K expression in testosterone-treated BPH-1 cells; assay type: cell-based; conditions: testosterone 100 nM, 25, 50 and 100 μM, 24 hours, concentration dependent
PCNA = assay: Western blotting of PCNA expression in testosterone-treated BPH-1 cells; assay type: cell-based; conditions: testosterone 100 nM, 25, 50 and 100 μM, 24 hours, concentration dependent
cyclin D1 = assay: Western blotting of cyclin D1 expression in testosterone-treated BPH-1 cells; assay type: cell-based; conditions: testosterone 100 nM, 25, 50 and 100 μM, 24 hours, concentration dependent
BPH animal models = assay: Prostate indexes in BPH animal model; assay type: in vivo, SD rats; conditions: 4 weeks
Description: All experiments were conducted in an aseptic environment. Three days after surgical recovery for the BPH-induced group (BPH), testosterone was dissolved in corn oil and then subcutaneously injected daily at 3 mg/kg, inducing BPH. For an Abeliophyllum distichum leaf ethanol extract-administered group (BPH+ADLE), an Abeliophyllum distichum leaf ethanol extract was dissolved in sterile distilled water and orally administered using a zonde at 100 mg/kg for 4 weeks. For a saw palmetto-administered group (BPH+Saw) as a positive control, saw palmetto was dissolved in sterile distilled water and orally administered at 100 mg/kg, and for a finasteride-administered group (BPH+Fi), finasteride was orally administered using a zonde at 1 mg/kg per day for 4 weeks. After the experiment, the rats were sacrificed using zoletil, blood samples were collected through heart puncture, and serum was then separated and stored at −80° C. The prostate was separated and weighed using RNAse-free surgical tools, and stored at −80° C., followed by western blotting.
Meanwhile, isoquercetin (IQ) administration was also performed in the same manner and using the same controls as described above, and for a low concentration-administered group (BPH+IQ1), IQ was dissolved in sterile distilled water and then orally administered at 1 mg/kg, and for a high concentration-administered group (BPH+IQ10), IQ was dissolved in sterile distilled water and then orally administered using a zonde at 10 mg/kg for 4 weeks.

5α-reductase 2 (5AR2) = assay: Western blotting of 5AR2 in prostate tissue of BPH animal model; assay type: in vivo, SD rats; conditions: oral 1 mg/kg or 10 mg/kg, 4 weeks; depending on intake concentration
Description: (§1) All experiments were conducted in an aseptic environment. Three days after surgical recovery for the BPH-induced group (BPH), testosterone was dissolved in corn oil and then subcutaneously injected daily at 3 mg/kg, inducing BPH. For an Abeliophyllum distichum leaf ethanol extract-administered group (BPH+ADLE), an Abeliophyllum distichum leaf ethanol extract was dissolved in sterile distilled water and orally administered using a zonde at 100 mg/kg for 4 weeks. […]
(§2) For animal experimental groups, protein expression of androgen signaling-related factors, 5α-reductase 2 (5AR2), steroid receptor coactivator 1 (SRC1), an estrogen receptor (ER), and a prostate-specific antigen (PSA), were analyzed. […] Subsequently, bands were then detected using an Azure c300 imaging system (Azure Biosystems) by chemiluminescence with an HPR substrate (Advanta Inc., San Jose, CA, USA). Band intensities were quantified by setting the area of each sample using ImageJ software (NIH ver. 1.48, USA) and then setting the area of corresponding β-actin in the same manner as used above, and dividing the area of β-actin by the area of each sample.

[4] = system: steroid receptor coactivator 1 (SRC1); assay: Western blotting of SRC1 in prostate tissue of BPH animal model; assay type: in vivo, SD rats; conditions: oral 1 mg/kg or 10 mg/kg, 4 weeks; depending on intake concentration
Description: as §1, §2

AR = assay: Western blotting of AR in prostate tissue of BPH animal model; assay type: in vivo, SD rats; conditions: oral 1 mg/kg or 10 mg/kg, 4 weeks; depending on intake concentration
[5] = compared among IQ, Rutin, CA and IR
[6] = testosterone-induced, depending on the concentration of isoquercetin
[7] = oral 1 mg/kg or 10 mg/kg, compared to the BPH-induced model

## O=c1c(O[C@@H]2O[C@H](CO)[C@@H](O)[C@H](O)[C@H]2O)c(-c2ccc(O)c(O)c2)oc2cc(O)cc(O)c12 [isoquercetin, 3-(β-D-glucopyranosyloxy)-3′,4′,5,7-tetrahydroxyflavone]
Androgenic receptor (AR); [5]
  effect on testosterone-induced AR expression level among four functional ingredient candidates: most excellent effect
Androgenic receptor (AR); [6]
  expression of AR: significantly reduced
5 alpha reductase (5AR2); [5]
  effect on testosterone-induced 5AR2 expression level among four functional ingredient candidates: most excellent effect
5 alpha reductase (5AR2); [6]
  expression of 5AR2: significantly reduced
[1]
  effect on testosterone-induced PSA expression level among four functional ingredient candidates: most excellent effect
PI3K [2]
  expression of PI3K: significantly reduced
PI3K [3]
  PI3K expression: significantly reduced
PCNA
  PCNA expression: significantly reduced
Cyclin D1
  cyclin D1 expression: significantly reduced
BPH animal models; oral 1 mg/kg and 10 mg/kg, depending on concentration
  prostate index: lowered
BPH animal models; [7]
  prostate weight: significantly reduced
  ratio of the prostate weight to a body weight: significantly decreased
5α-reductase 2 (5AR2)
  expression level of 5AR2 in prostate tissue: reduced
[4]
  expression level of SRC-1 in prostate tissue: reduced
AR
  expression level of AR in prostate tissue: reduced
